target: human-cGAS (h-cGAS) (Homo sapiens, UniProt Q8N884); assay: hcGAS Kinase-Glo Assay; format: biochemical; settings: 40 nM h-cGAS, 100 μM ATP, 100 μM GTP, 25 nM dsDNA, 3 h incubation, read-out: hcGAS potency IC50
Experimental: In some embodiments, the compounds of the instant disclosure may be tested for their human-cGAS (h-cGAS) inhibition activity using the methodology reported in Lama et al., “Development of human cGAS-specific small molecule inhibitors for repression of double stranded DNA (dsDNA)-triggered interferon expression”, Nature Communications 10, Article number: 2261 (2019), incorporated herein by reference. hcGAS Kinase-Glo Assay Compounds were tested for their human-cGAS (h-cGAS) inhibition activity using the methodology reported in Lama et al., “Development of human cGAS-specific small molecule inhibitors for repression of double stranded DNA (dsDNA)-triggered interferon expression”, Nature Communications 10. Article number: 2261 (2019), which is herein incorporated by reference in its entirety, with slight changes to some conditions as shown in Table B. The results of the assays, expressed in IC50 ranges are reported in Table C with the following designations: A represents an IC50 value <0.1 μM; B represents an IC50 value ≥0.1 μM and <0.5 μM; C represents an IC50 value ≥0.5 μM and <1.0 μM; D represents an IC50 value ≥1.0 μM. [table]

human-cGAS (h-cGAS), sequence (Q8N884 whole entry): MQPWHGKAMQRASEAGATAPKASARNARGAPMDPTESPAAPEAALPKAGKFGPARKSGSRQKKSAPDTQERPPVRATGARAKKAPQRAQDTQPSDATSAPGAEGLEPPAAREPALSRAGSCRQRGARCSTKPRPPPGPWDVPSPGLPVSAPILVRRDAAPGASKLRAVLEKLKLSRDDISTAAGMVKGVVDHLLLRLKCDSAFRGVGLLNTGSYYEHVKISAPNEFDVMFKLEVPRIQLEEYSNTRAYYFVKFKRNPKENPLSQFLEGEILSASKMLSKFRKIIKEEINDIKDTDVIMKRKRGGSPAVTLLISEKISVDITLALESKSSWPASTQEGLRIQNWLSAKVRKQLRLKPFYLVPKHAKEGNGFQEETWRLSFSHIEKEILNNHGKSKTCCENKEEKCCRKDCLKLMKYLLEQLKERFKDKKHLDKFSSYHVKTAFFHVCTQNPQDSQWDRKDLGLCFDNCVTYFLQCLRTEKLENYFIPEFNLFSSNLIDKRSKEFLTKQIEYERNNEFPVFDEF

IC50, ≥ 1000 nM:
CSc1nnc(NC(=O)c2onc3ccc(CN4CC[C@@H](O)[C@H](O)C4)cc23)s1 (racemic) [rac-183, 5-((3,4-rac-trans-dihydroxypiperidin-1-yl)methyl)-N-(5-(methylthio)-1,3,4-thiadiazol-2-yl)benzo[c]isoxazole-3-carboxamide]
CN(C)c1nnc(NC(=O)c2onc3c2ccc2cccnc23)s1 [Compound 14, N-(5-(dimethylamino)-1,3,4-thiadiazol-2-yl)isoxazolo[4,3-h]quinoline-3-carboxamide]
O=C(Nc1nnc(C(F)F)s1)c1onc2ccccc12 [Compound 18, N-(5-(difluoromethyl)-1,3,4-thiadiazol-2-yl)benzo[c]isoxazole-3-carboxamide]
O=C(Nc1nnc(-c2ccccc2)s1)c1onc2ccccc12 [Compound 19, N-(5-phenyl-1,3,4-thiadiazol-2-yl)benzo[c]isoxazole-3-carboxamide]
CCCc1nnc(NC(=O)c2onc3ccccc23)s1 [Compound 20, N-(5-propyl-1,3,4-thiadiazol-2-yl)benzo[c]isoxazole-3-carboxamide]
O=C(Nc1nnc(-c2cccc(Cl)c2)s1)c1onc2ccccc12 [Compound 23, N-(5-(3-chlorophenyl)-1,3,4-thiadiazol-2-yl)benzo[c]isoxazole-3-carboxamide]
O=C(Nc1nnc(-c2cccc(F)c2)s1)c1onc2ccccc12 [Compound 25, N-(5-(3-fluorophenyl)-1,3,4-thiadiazol-2-yl)benzo[c]isoxazole-3-carboxamide]
Cc1cccc(-c2nnc(NC(=O)c3onc4ccccc34)s2)c1 [Compound 28, N-(5-(m-tolyl)-1,3,4-thiadiazol-2-yl)benzo[c]isoxazole-3-carboxamide]
Cc1ccc(-c2nnc(NC(=O)c3onc4ccccc34)s2)cc1 [Compound 29, N-(5-(p-tolyl)-1,3,4-thiadiazol-2-yl)benzo[c]isoxazole-3-carboxamide]
O=C(Nc1nnc(-c2cccc(O)c2)s1)c1onc2ccccc12 [Compound 30, N-(5-(3-hydroxyphenyl)-1,3,4-thiadiazol-2-yl)benzo[c]isoxazole-3-carboxamide]

IC50, 500 to 1000 nM:
CSc1nnc(NC(=O)c2nnc(N3CCCC[C@@H]3c3ccccc3)o2)s1 (single isomer, unassigned) [Compound 121*]
O=C(Nc1nncs1)c1onc2c1ccc1cccnc12 [Compound 13, N-(1,3,4-thiadiazol-2-yl)isoxazolo[4,3-h]quinoline-3-carboxamide]
COC(=O)c1cc(C(=O)Nc2nnc(SC)s2)on1 [Compound 15, methyl 5-((5-(methylthio)-1,3,4-thiadiazol-2-yl)carbamoyl)isoxazole-3-carboxylate]
CSc1nnc(NC(=O)c2cc(C3CC3)no2)s1 [Compound 17, 3-cyclopropyl-N-(5-(methylthio)-1,3,4-thiadiazol-2-yl)isoxazole-5-carboxamide]
O=C(Nc1nnc(-c2ccccn2)s1)c1onc2ccccc12 [Compound 21, N-(5-(pyridin-2-yl)-1,3,4-thiadiazol-2-yl)benzo[c]isoxazole-3-carboxamide]
COc1ccccc1-c1nnc(NC(=O)c2onc3ccccc23)s1 [Compound 24, N-(5-(2-methoxyphenyl)-1,3,4-thiadiazol-2-yl)benzo[c]isoxazole-3-carboxamide]
Cc1ccccc1-c1nnc(NC(=O)c2onc3ccccc23)s1 [Compound 27, N-(5-(o-tolyl)-1,3,4-thiadiazol-2-yl)benzo[c]isoxazole-3-carboxamide]

IC50, 100 to 500 nM:
CSc1nnc(NC(=O)c2nnc(N3CCCC[C@H]3c3ccccc3)o2)s1 (single isomer, unassigned) [Compound 122*]
COC(=O)c1cc(C(=O)Nc2nnc(-c3ccccc3Cl)s2)on1 [Compound 1, Methyl 5-((5-(2-chlorophenyl)-1,3,4-thiadiazol-2-yl)carbamoyl)isoxazole-3-carboxylate]
CC(C)(C)OC(=O)Nc1cc(C(=O)Nc2nnc(-c3ccccc3Cl)s2)on1 [Compound 3, tert-butyl (5-((5-(2-chlorophenyl)-1,3,4-thiadiazol-2-yl)carbamoyl)isoxazol-3-yl)carbamate]
CC(=O)Nc1cc(C(=O)Nc2nnc(-c3ccccc3Cl)s2)on1 [Compound 5, 3-acetamido-N-(5-(2-chlorophenyl)-1,3,4-thiadiazol-2-yl)isoxazole-5-carboxamide]
O=C(Nc1nnc(-c2ccccc2Cl)s1)c1ccno1 [Compound 6, N-(5-(2-chlorophenyl)-1,3,4-thiadiazol-2-yl)isoxazole-5-carboxamide]
O=C(Nc1nnc(-c2c(F)cccc2F)s1)c1onc2c1ccc1cccnc12 [Compound 8, N-(5-(2,6-difluorophenyl)-1,3,4-thiadiazol-2-yl)isoxazolo[4,3-h]quinoline-3-carboxamide]
N#Cc1nnc(NC(=O)c2onc3c2ccc2cccnc23)s1 [Compound 9, N-(5-cyano-1,3,4-thiadiazol-2-yl)isoxazolo[4,3-h]quinoline-3-carboxamide]
O=C(Nc1nnc(-c2ccccn2)s1)c1onc2c1ccc1cccnc12 [Compound 10, N-(5-(pyridin-2-yl)-1,3,4-thiadiazol-2-yl)isoxazolo[4,3-h]quinoline-3-carboxamide]
CSc1nsc(NC(=O)c2onc3c2ccc2cccnc23)n1 [Compound 11, N-(3-(methylthio)-1,2,4-thiadiazol-5-yl)isoxazolo[4,3-h]quinoline-3-carboxamide]
O=C(Nc1nnc(C(F)(F)F)s1)c1onc2c1ccc1cccnc12 [Compound 12, N-(5-(trifluoromethyl)-1,3,4-thiadiazol-2-yl)isoxazolo[4,3-h]quinoline-3-carboxamide]
CSc1nnc(NC(=O)c2cc(C(=O)O)no2)s1 [Compound 16, 5-((5-(methylthio)-1,3,4-thiadiazol-2-yl)carbamoyl)isoxazole-3-carboxylic acid]
O=C(Nc1nnc(-c2ccccc2Cl)s1)c1onc2ccccc12 [Compound 22, N-(5-(2-chlorophenyl)-1,3,4-thiadiazol-2-yl)benzo[c]isoxazole-3-carboxamide]
O=C(Nc1nnc(-c2ccccc2F)s1)c1onc2ccccc12 [Compound 26, N-(5-(2-fluorophenyl)-1,3,4-thiadiazol-2-yl)benzo[c]isoxazole-3-carboxamide]

IC50, < 100 nM:
O=C(O)c1cc(C(=O)Nc2nnc(-c3ccccc3Cl)s2)on1 [Compound 2, 5-((5-(2-chlorophenyl)-1,3,4-thiadiazol-2-yl)carbamoyl)isoxazole-3-carboxylic acid]
Nc1cc(C(=O)Nc2nnc(-c3ccccc3Cl)s2)on1 [Compound 4, 3-amino-N-(5-(2-chlorophenyl)-1,3,4-thiadiazol-2-yl)isoxazole-5-carboxamide]
O=C(Nc1nnc(-c2ccccc2Cl)s1)c1onc2c1ccc1cccnc12 [Compound 7, N-(5-(2-chlorophenyl)-1,3,4-thiadiazol-2-yl)isoxazolo[4,3-h]quinoline-3-carboxamide]
